Data from PubChem BioAssay AID330 (DTP/NCI, 2004).
Where “and” joins values, the source holds several entries; their conditions need not be identical. Equal entries are not always repeated. Inconclusive results and toxic doses are left out.

Test system: P388 leukemia ip, CD2F1 mice, survival T/C
Test: NCI In Vivo Anticancer Drug Screen. Data for tumor model P388 Leukemia (intraperitoneal) in CD2F1 (CDF1) mice
Details: endpoint: median survival time, higher = longer survival
Summary of the method: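 Mice carrying the transplanted tumor received test compound or vehicle. Survival was recorded in each group, and the value is the treated-group measurement divided by that of the vehicle-treated control group.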

[1] = dose: 25.0 mg/kg/injection, schedule: Q01DX005 (ip), vehicle: Klucel (hydroxypropylcellulose) (HPC)
[2] = dose: 50.0 mg/kg/injection, schedule: Q01DX005 (ip), vehicle: Klucel (hydroxypropylcellulose) (HPC)
[3] = dose: 50.0 mg/kg/injection, schedule: Q01DX005 (ip), vehicle: saline with Tween-80
[4] = dose: 100.0 mg/kg/injection, schedule: Q01DX005 (ip), vehicle: saline with Tween-80
[5] = dose: 200.0 mg/kg/injection, schedule: Q01DX005 (ip), vehicle: saline with Tween-80
[6] = dose: 100.0 mg/kg/injection, schedule: Q04DX003 (ip), vehicle: saline with Tween-80
[7] = dose: 200.0 mg/kg/injection, schedule: Q04DX003 (ip), vehicle: saline with Tween-80
[8] = dose: 400.0 mg/kg/injection, schedule: Q04DX003 (ip), vehicle: saline with Tween-80

With `CCOC(=O)NCC(C)(c1ccccc1)c1ccccc1` the T/C (dose: 50.0 mg/kg/injection, schedule: Q01DX009 (ip), vehicle: saline) was 87 % of control, the T/C (dose: 100.0 mg/kg/injection, schedule: Q01DX009 (ip), vehicle: saline) was 94 % of control and the T/C (dose: 200.0 mg/kg/injection, schedule: Q01DX009 (ip), vehicle: saline) was 87 % of control.
With `CN(C)CSCN(C)C` the T/C (dose: 25.0 mg/kg/injection, schedule: Q01DX009 (ip), vehicle: saline with Tween-80) was 103 % of control and 93 % of control, the T/C (dose: 50.0 mg/kg/injection, schedule: Q01DX009 (ip), vehicle: saline with Tween-80) was 100 % of control and 113 % of control and the T/C (dose: 100.0 mg/kg/injection, schedule: Q01DX009 (ip), vehicle: saline with Tween-80) was 102 % of control and 123 % of control.
In the case of `O=c1c2cc(O)ccc2sc2c(CO)ccc(NCCN3CCCC3)c12`, the T/C (dose: 19.25 mg/kg/injection, schedule: Q01DX005 (ip), vehicle: Klucel (hydroxypropylcellulose) (HPC)) is reported as 101 % of control, the T/C (dose: 38.5 mg/kg/injection, schedule: Q01DX005 (ip), vehicle: Klucel (hydroxypropylcellulose) (HPC)) is reported as 100 % of control and the T/C (dose: 77.0 mg/kg/injection, schedule: Q01DX005 (ip), vehicle: Klucel (hydroxypropylcellulose) (HPC)) is reported as 106 % of control. The T/C (dose: 154.0 mg/kg/injection, schedule: Q01DX005 (ip), vehicle: Klucel (hydroxypropylcellulose) (HPC)) was 109 % of control.
`O=C([O][Bi]([c]1ccccc1)[c]1ccccc1)c1ccccc1` was tested, and the T/C (dose: 6.25 mg/kg/injection, schedule: Q01DX005 (ip), vehicle: Klucel (hydroxypropylcellulose) (HPC)) was 113 % of control, the T/C (dose: 12.5 mg/kg/injection, schedule: Q01DX005 (ip), vehicle: Klucel (hydroxypropylcellulose) (HPC)) was 106 % of control and the T/C [1] was 102 % of control and 106 % of control. For the same molecule, the T/C [2] was 122 % of control.
In the case of `Cc1cc(=O)c2c([nH]1)c1c(c3[nH]c(C)cc(=O)c32)Oc2ccccc2O1`, the T/C [3] is reported as 93 % of control, the T/C [4] is reported as 95 % of control and the T/C [5] is reported as 97 % of control.
For `COc1c(O)c2c(c3cc(C(=O)N4CCc5c4c(O)c(OC)c4[nH]c(C(=O)N6CC7CC78C6=CC(=O)c6[nH]cc(C)c68)cc54)[nH]c13)CCN2C(N)=O` (configuration not stated), the T/C (dose: 0.01 mg/kg/injection, schedule: Q04DX003 (ip), vehicle: other) was 190 % of control, the T/C (dose: 0.03 mg/kg/injection, schedule: Q04DX003 (ip), vehicle: other) was 190 % of control and 211 % of control and the T/C (dose: 0.04 mg/kg/injection, schedule: Q04DX003 (ip), vehicle: DMSO) was 150 % of control. For the same molecule, the T/C (dose: 0.1 mg/kg/injection, schedule: Q04DX003 (ip), vehicle: DMSO) was 166 % of control, the T/C (dose: 0.1 mg/kg/injection, schedule: Q04DX003 (ip), vehicle: other) was 118 % of control and 98 % of control and the T/C (dose: 2.6 micrograms/kg/injection, schedule: Q01DX009 (ip), vehicle: other) was 120 % of control. For the same molecule, the T/C (dose: 4.0 micrograms/kg/injection, schedule: Q01DX009 (ip), vehicle: other) was 119 % of control, the T/C (dose: 10.0 micrograms/kg/injection, schedule: Q04DX003 (ip), vehicle: other) was 163 % of control and the T/C (dose: 13.0 micrograms/kg/injection, schedule: Q01DX009 (ip), vehicle: DMSO) was 94 % of control. The T/C (dose: 13.0 micrograms/kg/injection, schedule: Q04DX003 (ip), vehicle: other) was 124 % of control, the T/C (dose: 20.0 micrograms/kg/injection, schedule: Q04DX003 (ip), vehicle: other) was 120 % of control and the T/C (dose: 21.6 micrograms/kg/injection, schedule: Q01DX009 (ip), vehicle: DMSO) was 95 % of control. The T/C (dose: 30.0 micrograms/kg/injection, schedule: Q04DX003 (ip), vehicle: other) was 181 % of control, the T/C (dose: 36.0 micrograms/kg/injection, schedule: Q01DX009 (ip), vehicle: DMSO) was 98 % of control and the T/C (dose: 60.0 micrograms/kg/injection, schedule: Q01DX009 (ip), vehicle: DMSO) was 93 % of control. For the same molecule, the T/C (dose: 64.8 micrograms/kg/injection, schedule: Q04DX003 (ip), vehicle: DMSO) was 153 % of control, the T/C (dose: 64.8 micrograms/kg/injection, schedule: Q04DX003 (ip), vehicle: saline) was 156 % of control and the T/C (dose: 88.5 micrograms/kg/injection, schedule: Q01DX001 (ip), vehicle: other) was 153 % of control. For the same molecule, the T/C (dose: 100.0 micrograms/kg/injection, schedule: Q01DX009 (ip), vehicle: DMSO) was 95 % of control, the T/C (dose: 100.0 micrograms/kg/injection, schedule: Q04DX003 (ip), vehicle: other) was 93 % of control and the T/C (dose: 108.0 micrograms/kg/injection, schedule: Q04DX003 (ip), vehicle: DMSO) was 161 % of control. The T/C (dose: 133.0 micrograms/kg/injection, schedule: Q01DX001 (ip), vehicle: other) was 155 % of control, the T/C (dose: 180.0 micrograms/kg/injection, schedule: Q04DX003 (ip), vehicle: DMSO) was 170 % of control and the T/C (dose: 200.0 micrograms/kg/injection, schedule: Q01DX001 (ip), vehicle: other) was 162 % of control. For the same molecule, the T/C (dose: 300.0 micrograms/kg/injection, schedule: Q04DX003 (ip), vehicle: saline) was 105 % of control and the T/C (dose: 450.0 micrograms/kg/injection, schedule: Q01DX001 (ip), vehicle: other) was 157 % of control.
For `CCN(CC)C(=O)c1ccc(C)c2c1Nc1c(c(C)c3oc(=O)c(C)nc3c1C(=O)N(CC)CC)O2`, the T/C (dose: 7.5 mg/kg/injection, schedule: Q01DX005 (ip), vehicle: Klucel (hydroxypropylcellulose) (HPC)) was 97 % of control, the T/C (dose: 15.0 mg/kg/injection, schedule: Q01DX005 (ip), vehicle: Klucel (hydroxypropylcellulose) (HPC)) was 90 % of control and the T/C (dose: 120.0 mg/kg/injection, schedule: Q01DX005 (ip), vehicle: Klucel (hydroxypropylcellulose) (HPC)) was 88 % of control. The T/C (dose: 240.0 mg/kg/injection, schedule: Q01DX005 (ip), vehicle: Klucel (hydroxypropylcellulose) (HPC)) was 92 % of control.
In the case of `CC(=O)NS(=O)(=O)c1ccc(N=NC2C(=O)N(C(=O)c3cccnc3)N=C2C)cc1` (configuration not stated), the T/C [6] is reported as 101 % of control, the T/C [7] is reported as 104 % of control and the T/C [8] is reported as 109 % of control.
For `Cn1nnnc1-c1ccc(C(=O)O)cc1`, the T/C [1] was 102 % of control, the T/C [2] was 102 % of control and 91 % of control and the T/C (dose: 100.0 mg/kg/injection, schedule: Q01DX005 (ip), vehicle: Klucel (hydroxypropylcellulose) (HPC)) was 96 % of control. The T/C (dose: 200.0 mg/kg/injection, schedule: Q01DX005 (ip), vehicle: Klucel (hydroxypropylcellulose) (HPC)) was 93 % of control.
`CCO/C=C1\SC(=S)N(c2ccc(C(=O)O)cc2)C1=O` was tested, and the T/C (dose: 4.4 mg/kg/injection, schedule: Q01DX009 (ip), vehicle: saline with Tween-80) was 104 % of control, the T/C (dose: 6.6 mg/kg/injection, schedule: Q01DX009 (ip), vehicle: saline with Tween-80) was 109 % of control and the T/C (dose: 10.0 mg/kg/injection, schedule: Q01DX009 (ip), vehicle: saline with Tween-80) was 109 % of control. The T/C (dose: 15.0 mg/kg/injection, schedule: Q01DX009 (ip), vehicle: saline with Tween-80) was 109 % of control, the T/C [6] was 118 % of control and the T/C [7] was 113 % of control.
With `COC(=O)C1=C(C)NC(=O)NC1c1ccc(OC)cc1` (configuration not stated) the T/C [6] was 95 % of control, the T/C [7] was 95 % of control and the T/C [8] was 100 % of control.
`CCCOc1ccc(-c2nc(-c3ccc([N+](=O)[O-])cc3)cs2)cc1` was tested, and the T/C (dose: 50.0 mg/kg/injection, schedule: Q01DX009 (ip), vehicle: Klucel (hydroxypropylcellulose) (HPC)) was 113 % of control, the T/C (dose: 100.0 mg/kg/injection, schedule: Q01DX009 (ip), vehicle: Klucel (hydroxypropylcellulose) (HPC)) was 104 % of control and the T/C (dose: 200.0 mg/kg/injection, schedule: Q01DX009 (ip), vehicle: Klucel (hydroxypropylcellulose) (HPC)) was 104 % of control.
With `CN(C)CCC(=O)Nc1nc(-c2ccc(Cl)cc2)cs1` the T/C [3] was 102 % of control, the T/C [4] was 92 % of control and the T/C [5] was 96 % of control.
With `O=S1(F)=NP(N2CC2)(N2CC2)=NP(N2CC2)(N2CC2)=N1` (configuration not stated) the T/C (dose: 5.0 mg/kg/injection, schedule: Q04DX003 (ip), vehicle: saline) was 86 % of control, the T/C (dose: 10.0 mg/kg/injection, schedule: Q04DX003 (ip), vehicle: saline) was 102 % of control and the T/C (dose: 20.0 mg/kg/injection, schedule: Q04DX003 (ip), vehicle: saline) was 86 % of control. For the same molecule, the T/C (dose: 40.0 mg/kg/injection, schedule: Q04DX003 (ip), vehicle: saline) was 234 % of control.
`CCOC(=O)C(Cc1ccccc1)C1(C)SCCN1C(=O)OCC` (configuration not stated) was tested, and the T/C (dose: 25.0 mg/kg/injection, schedule: Q01DX005 (ip), vehicle: saline with Tween-80) was 101 % of control, the T/C [3] was 105 % of control and the T/C [4] was 100 % of control. The T/C [5] was 103 % of control.
With `Ic1ccc([I+]c2ccc(I)cc2)cc1` the T/C (dose: 25.0 mg/kg/injection, schedule: Q01DX001 (ip), vehicle: saline with Tween-80) was 100 % of control, the T/C (dose: 50.0 mg/kg/injection, schedule: Q01DX001 (ip), vehicle: saline with Tween-80) was 99 % of control and the T/C (dose: 100.0 mg/kg/injection, schedule: Q01DX001 (ip), vehicle: saline with Tween-80) was 95 % of control. The T/C (dose: 200.0 mg/kg/injection, schedule: Q01DX001 (ip), vehicle: saline with Tween-80) was 100 % of control and the T/C (dose: 400.0 mg/kg/injection, schedule: Q01DX001 (ip), vehicle: saline with Tween-80) was 100 % of control.
